Test results from patent publication US12559732B2, “Compositions and methods for producing human milk oligosaccharides” (NORTH CAROLINA STATE UNIVERSITY, priority 2020, dated 2026).

What was measured:
[1] = test system: Hamamotoa (Sporobolomyces) singularis β-hexosyl-transferase (BHT, EC 3.2.1.21), native; settings: lactose concentrations above 20%; cited from earlier work
[2] = target: T1, Hamamotoa (Sporobolomyces) singularis β-hexosyl-transferase (BHT), truncated variant rBHT(23-594)-HIS (residues 1-22 removed); MFα-rBht(23-594)-HIS SEQ ID NO: 38 (Hamamotoa singularis, UniProt Q564N5); experiment: Kinetics of ONP-Glu cleavage by purified soluble rBHT(23-594)-HIS; format: biochemical; settings: 0.08-10.4 mM ONP-Glu, 20, 30, 42 and 55° C.
T1 construct: codon-optimized gene
From the text: (§1) K. pastoris Transformation and Expression. […] Expression and purification have been described previously.
(§2) Kinetic parameters of secreted soluble rBHT variants.

[3] = target: Hamamotoa (Sporobolomyces) singularis β-hexosyl-transferase (BHT), truncated variant rBHT(32-594)-HIS (residues 1-31 removed); MFα-rBht(32-594)-HIS SEQ ID NO: 48 (Hamamotoa singularis, UniProt Q564N5); experiment: Kinetics of ONP-Glu cleavage by purified soluble rBHT(32-594)-HIS; format: biochemical; settings: 0.08-10.4 mM ONP-Glu, 20, 30, 42 and 55° C.
From the text: as §1, §2

[4] = target: Hamamotoa (Sporobolomyces) singularis β-hexosyl-transferase (BHT), truncated variant rBHT(54-594)-HIS (residues 1-53 removed); MFα-rBht(54-594)-HIS SEQ ID NO: 50 (Hamamotoa singularis, UniProt Q564N5); experiment: Kinetics of ONP-Glu cleavage by purified soluble rBHT(54-594)-HIS; format: biochemical; settings: 0.08-10.4 mM ONP-Glu, 20, 30, 42 and 55° C.
From the text: as §1, §2

[5] = target: T2, Hamamotoa (Sporobolomyces) singularis β-hexosyl-transferase (BHT), truncated variant rBHT(57-594)-HIS (residues 1-56 removed); MFα-rBht(57-594)-HIS SEQ ID NO: 52 (Hamamotoa singularis, UniProt Q564N5); settings: 0.08-10.4 mM ONP-Glu, 20, 30, 42 and 55° C.
T2 sequence (Q564N5 57-594): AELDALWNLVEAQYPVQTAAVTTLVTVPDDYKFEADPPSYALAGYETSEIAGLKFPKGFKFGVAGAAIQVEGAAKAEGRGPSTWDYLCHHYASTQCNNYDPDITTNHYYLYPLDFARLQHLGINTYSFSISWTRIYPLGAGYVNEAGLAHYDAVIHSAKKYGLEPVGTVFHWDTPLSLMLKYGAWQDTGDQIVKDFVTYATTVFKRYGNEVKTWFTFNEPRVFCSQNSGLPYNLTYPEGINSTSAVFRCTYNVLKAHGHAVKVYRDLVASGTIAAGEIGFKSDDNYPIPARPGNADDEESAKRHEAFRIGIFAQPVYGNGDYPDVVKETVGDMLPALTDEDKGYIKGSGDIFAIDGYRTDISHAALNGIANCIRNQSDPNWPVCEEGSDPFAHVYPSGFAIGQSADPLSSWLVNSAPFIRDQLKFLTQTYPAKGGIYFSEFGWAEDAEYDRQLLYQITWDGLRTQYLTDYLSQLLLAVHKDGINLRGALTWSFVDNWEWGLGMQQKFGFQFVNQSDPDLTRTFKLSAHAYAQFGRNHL

Structure (SMILES)	inhibition by lactose [1]	Km (affinity for the substrate ONP-Glu) [2]	kcat (turnover activity, ONP-Glu) [2]	Km (affinity for the substrate ONP-Glu) [3]	kcat (turnover activity, ONP-Glu) [3]	Km (affinity for the substrate ONP-Glu) [4]	kcat (turnover activity, ONP-Glu) [4]	Km (affinity for the substrate ONP-Glu) [5]	kcat (turnover activity, ONP-Glu) [5]
OC[C@H]1O[C@@H](O[C@H]2[C@H](O)[C@@H](O)C(O)O[C@@H]2CO)[C@H](O)[C@@H](O)[C@H]1O (stereo partly drawn) [lactose]	does not appear to be inhibited by lactose concentrations above 20%								
O=[N+]([O-])c1ccccc1O[C@@H]1O[C@H](CO)[C@@H](O)[C@H](O)[C@H]1O [ONP-Glu]		retain similar affinity for the substrate ONP-Glu (Km)	retain similar affinity for the substrate ONP-Glu (Km) and turnover activity (kcat)	retain similar affinity for the substrate ONP-Glu (Km)	retain similar affinity for the substrate ONP-Glu (Km) and turnover activity (kcat)	retain similar affinity for the substrate ONP-Glu (Km)	retain similar affinity for the substrate ONP-Glu (Km) and turnover activity (kcat)	retain similar affinity for the substrate ONP-Glu (Km)	retain similar affinity for the substrate ONP-Glu (Km) and turnover activity (kcat)
